Consider ten compounds from ChEMBL document CHEMBL1201862, “PubChem BioAssay data set” (2004).

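How tested: cells in 96-well plates exposed to compound for 48 hours at five concentrations. GI50: concentration for 50% inhibition of growth.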 Activity calls are given as the source filed them. No stated cut-off is given here; in the data, active = GI50 up to about 1.1 µM and inactive = higher. Some results are limits rather than exact numbers.

Among the test systems are UACC-257; SF-539; SF-295; OVCAR-5; TK-10; CCRF-CEM; MCF7; HCT-15; SW-620; M14; MDA-N; SK-MEL-2; OVCAR-3; SF-268; HCT-116; Malme-3M; OVCAR-8; SK-OV-3; SK-MEL-5; KM12.
What all share (assay): inhibition of tumour cell growth, NCI panel, 48 h

As for `Oc1c(C(O)(c2ccccc2)c2ccc3ccccc3c2O)ccc2ccccc12`, the GI50 is 10.2 µM (inactive) in the assay with UACC-257; 19 µM (inactive) in the assay with SF-539; 16.5 µM (inactive) with SF-295; 17.8 µM (inactive) with OVCAR-5; 13 µM (inactive) in the assay with TK-10; 0.597 µM (active) in the assay with CCRF-CEM. The GI50 is 2.93 µM (inactive) in the assay with MCF7; 8.77 µM in the assay on HCT-15; 11.2 µM (inactive) in the assay with SW-620; 15.5 µM (inactive) in the assay with M14; 12.2 µM (inactive) in the assay on MDA-N; 12.4 µM (inactive) with SK-MEL-2. Moreover, the GI50 in the assay with OVCAR-3 is 6.47 µM (inactive); with SF-268, 12.2 µM (inactive); in the assay with HCT-116 it was 7.76 µM (inactive); in the assay on Malme-3M, 11.8 µM (inactive); in the assay on OVCAR-8, 11.3 µM (inactive); in the assay on SK-OV-3, 17.9 µM (inactive). Besides, the values for the GI50 in the assay on SK-MEL-5 and in the assay on KM12 were 5.68 µM (inactive) and 9.38 µM (inactive), respectively.
As for `COc1cccc(/C=C/c2ccnc3ccccc23)c1OC`, the GI50 is > 10 µM (inactive) in the assay on UACC-257; > 10 µM (inactive) with SF-539; > 10 µM (inactive) with SF-295; > 10 µM (inactive) in the assay on OVCAR-5; > 10 µM (inactive) in the assay with TK-10; 4.6 µM (inactive) with CCRF-CEM. The GI50 is > 10 µM (inactive) in the assay on MCF7; more than 10 µM in the assay on HCT-15; > 10 µM (inactive) in the assay with SW-620; > 10 µM (inactive) with M14; 4.94 µM (inactive) in the assay on MDA-N; > 10 µM (inactive) in the assay on SK-MEL-2. Moreover, the GI50 with OVCAR-3 was 7.78 µM (inactive); with SF-268, > 10 µM (inactive); in the assay with HCT-116, > 10 µM (inactive); with Malme-3M, > 10 µM (inactive); in the assay on OVCAR-8, > 10 µM (inactive); in the assay with SK-OV-3, > 10 µM (inactive). The figures for the GI50 with SK-MEL-5 and in the assay with KM12 were 6.89 µM (inactive) and > 10 µM (inactive), respectively.
On to `Oc1ccc(Nc2nc(Cl)c3nc[nH]c3n2)cc1`, for which the GI50 is > 100 µM (inactive) with UACC-257; > 100 µM (inactive) in the assay with SF-539; > 100 µM (inactive) in the assay with SF-295; > 100 µM (inactive) in the assay on OVCAR-5; > 100 µM (inactive) in the assay on TK-10; 37.9 µM (inactive) in the assay on CCRF-CEM. For the same compound, the GI50 in the assay with MCF7 is > 100 µM (inactive); with HCT-15, more than 100 µM; with SW-620, > 100 µM (inactive); in the assay with M14, > 100 µM (inactive); in the assay on MDA-N it was > 100 µM (inactive); with SK-MEL-2, 27.2 µM (inactive). Further, the GI50 with OVCAR-3, in the assay on SF-268, with HCT-116, in the assay on Malme-3M, with OVCAR-8 and in the assay on SK-OV-3 was > 100 µM (inactive) throughout. Besides, the GI50 in the assay on SK-MEL-5 and in the assay with KM12 was > 100 µM (inactive) each time.
With `COc1ccccc1N1C(=O)CS(=O)(=O)C1c1cccc(Oc2ccccc2)c1` (stereo not given), the GI50 with UACC-257 is 11.9 µM (inactive); with SF-539, 16 µM (inactive); with SF-295, 16.7 µM (inactive); in the assay on OVCAR-5 it was 26.2 µM (inactive); in the assay with TK-10, 18.5 µM (inactive); with CCRF-CEM, 25.8 µM (inactive). Also, the GI50 in the assay with MCF7 is 6.21 µM (inactive); with HCT-15, 12.1 µM; with SW-620 it was 19.4 µM (inactive); in the assay on M14, 16.6 µM (inactive); in the assay with MDA-N, 4.3 µM (inactive); with SK-MEL-2, 13 µM (inactive). The GI50 in the assay on OVCAR-3 is 18.7 µM (inactive); with SF-268, 15.8 µM (inactive); with HCT-116, 13.5 µM (inactive); in the assay with Malme-3M, 15 µM (inactive); with OVCAR-8, 16.5 µM (inactive); with SK-OV-3 it was 23.8 µM (inactive). In addition, the GI50 is 14.4 µM (inactive) in the assay on SK-MEL-5 and 15.7 µM (inactive) in the assay on KM12.
As to `COc1cc(C2c3cc4c(cc3OC(O)C2C)OCO4)cc(OC)c1OC` (stereo not given), the GI50 in the assay on UACC-257 was 9.68 µM (inactive); with SF-539 it was 0.294 µM (active); with SF-295 it was 0.324 µM (active); in the assay on OVCAR-5 it was 4.78 µM (inactive); in the assay with TK-10 it was 34.9 µM (inactive); in the assay with CCRF-CEM it was 0.229 µM (active). Further, the GI50 with MCF7 was 0.29 µM (active); with HCT-15 it was 0.403 µM; in the assay with SW-620 it was 0.292 µM (active); with M14 it was 0.376 µM (active); in the assay with MDA-N, 0.0887 µM (active); with SK-MEL-2 it was 0.486 µM (active). Also, the GI50 in the assay on OVCAR-3 was 0.243 µM (active); in the assay on SF-268, 1.51 µM (inactive); with HCT-116, 0.349 µM (active); in the assay with Malme-3M, 0.431 µM (active); in the assay with OVCAR-8 it was 0.245 µM (active); in the assay with SK-OV-3 it was 0.414 µM (active). Besides, the GI50 is 0.272 µM (active) in the assay with SK-MEL-5 and 0.347 µM (active) with KM12.
As for `Cc1ncc([N+](=O)[O-])n1CCNC(=O)CCC(=O)NCCCn1ccnc1[N+](=O)[O-]`, the GI50 in the assay with UACC-257, with SF-539, in the assay on SF-295, with OVCAR-5, in the assay with TK-10 and in the assay on CCRF-CEM was > 100 µM (inactive) in each case. Also, the GI50 is > 100 µM (inactive) in the assay on MCF7; more than 100 µM in the assay on HCT-15; > 100 µM (inactive) in the assay on SW-620; > 100 µM (inactive) in the assay on M14; > 100 µM (inactive) with MDA-N; > 100 µM (inactive) in the assay with SK-MEL-2. Further, the GI50 in the assay with OVCAR-3, in the assay with SF-268, in the assay on HCT-116, in the assay with Malme-3M, in the assay on OVCAR-8 and with SK-OV-3 was > 100 µM (inactive) each time. Also, the GI50 with SK-MEL-5 and with KM12 was > 100 µM (inactive) in each case.
Take `COc1cc(OC)c2nccc(NCCCN(C)C)c2c1[N+](=O)[O-]`: the GI50 with UACC-257 is 58.3 µM (inactive); in the assay on SF-539, 45.7 µM (inactive); with SF-295 it was > 100 µM (inactive); in the assay on OVCAR-5, > 100 µM (inactive); in the assay with TK-10, > 100 µM (inactive); in the assay with CCRF-CEM, > 100 µM (inactive). Besides, the GI50 is > 100 µM (inactive) with MCF7; more than 100 µM in the assay on HCT-15; 95.9 µM (inactive) in the assay with SW-620; 27.3 µM (inactive) with M14; > 100 µM (inactive) in the assay with MDA-N; > 100 µM (inactive) in the assay with SK-MEL-2. Also, the GI50 was 49.3 µM (inactive) with OVCAR-3; > 100 µM (inactive) with SF-268; 62.4 µM (inactive) in the assay on HCT-116; 55.1 µM (inactive) in the assay on Malme-3M; > 100 µM (inactive) in the assay with OVCAR-8; > 100 µM (inactive) in the assay on SK-OV-3. The GI50 in the assay with SK-MEL-5 and in the assay on KM12 was > 100 µM (inactive) each time.
In the case of `COc1cc2c(c(OC)c1OC)-c1cccc(=O)cc1C(NC(C)=O)CC2` (stereo not given), the GI50 in the assay on UACC-257 is 0.0607 µM (active); in the assay on SF-539, 0.042 µM (active); with SF-295 it was 0.0792 µM (active); with OVCAR-5, 7.5 µM (inactive); in the assay on TK-10, > 28.2 µM (inactive); with CCRF-CEM, 0.0414 µM (active). In addition, the GI50 in the assay with MCF7 was < 0.01 µM (active); in the assay on HCT-15, 0.612 µM; in the assay with SW-620, 0.0408 µM (active); with M14, 0.0621 µM (active); in the assay with MDA-N, < 0.01 µM (active); in the assay on SK-MEL-2, 0.0698 µM (active). Moreover, the GI50 in the assay on OVCAR-3 is 0.0463 µM (active); in the assay with SF-268, 0.128 µM (active); in the assay on HCT-116, 0.055 µM (active); in the assay with Malme-3M, 0.0867 µM (active); in the assay with OVCAR-8, 0.2 µM (active); in the assay with SK-OV-3 it was 0.485 µM (active). The values for the GI50 with SK-MEL-5 and in the assay on KM12 were 0.0397 µM (active) and 0.0346 µM (active), respectively.
As to `O=C(O)[C@H]1NC[C@@H]2ON=C(Br)[C@@H]21`, the GI50 in the assay on UACC-257, in the assay on SF-539, in the assay with SF-295, with OVCAR-5, with TK-10 and in the assay on CCRF-CEM was > 100 µM (inactive) each time. Besides, the GI50 in the assay on MCF7 was > 100 µM (inactive); with HCT-15 it was more than 100 µM; in the assay with SW-620 it was > 100 µM (inactive); in the assay with M14 it was > 100 µM (inactive); in the assay on MDA-N it was > 100 µM (inactive); in the assay with SK-MEL-2 it was > 100 µM (inactive). Besides, the GI50 with OVCAR-3, with SF-268, in the assay with HCT-116, in the assay with Malme-3M, in the assay with OVCAR-8 and with SK-OV-3 was > 100 µM (inactive) in each case. The GI50 with SK-MEL-5 and in the assay with KM12 was > 100 µM (inactive) each time.
Consider `CSC[C@H](NC(=O)COc1cccc2cnccc12)C(=O)NC(Cc1ccccc1)C(O)C(=O)N1CSC[C@H]1C(=O)NC(C)(C)C` (stereo not given in full), for which the GI50 in the assay on UACC-257 was 29.2 µM (inactive); with SF-539 it was 11 µM (inactive); in the assay on SF-295, 60.4 µM (inactive); in the assay on OVCAR-5, > 100 µM (inactive); in the assay on TK-10, > 100 µM (inactive); in the assay on CCRF-CEM, 26.5 µM (inactive). In addition, the GI50 was 68.2 µM (inactive) with MCF7; more than 100 µM in the assay on HCT-15; > 100 µM (inactive) in the assay on SW-620; 78.2 µM (inactive) with M14; 38.4 µM (inactive) with MDA-N; > 100 µM (inactive) in the assay on SK-MEL-2. Also, the GI50 in the assay with OVCAR-3 was 69.8 µM (inactive); with SF-268, 16.9 µM (inactive); in the assay on HCT-116, 23 µM (inactive); in the assay with Malme-3M it was > 100 µM (inactive); in the assay with OVCAR-8 it was 78.3 µM (inactive); with SK-OV-3 it was > 100 µM (inactive). For the same compound, the results for the GI50 with SK-MEL-5 and with KM12 were > 10 µM (inactive) and 53.2 µM (inactive), respectively.
